The values below come from US12303594B2, “Antimicrobial and anti-inflammatory compositions” (The Texas A&M University System, priority 2015, dated 2025).

Data set [1] concerns Pseudomonas aeruginosa, PA01. Nature of the data set: In vitro bacterial growth study (OD600). The conditions noted are these: 10 μg/mL or 1 μg/mL ibuprofen solution added 1:1 (v:v).
Data set [2] is described as follows: Angle of repose (USP method). The format is physicochemical. The note with it: N = 3. The protocol: Angle of repose: Angles of repose were measured in triplicate according to the United States Pharmacopoeia (USP) method. Images of the powder mounds were taken using a digital camera and were analyzed using the ImageJ software (Wayne Rasband, Research Services Branch, National Institute of Mental Health, Bethesda, MD, USA). […]

Data set [3] can be described thus: Helium pycnometry true density. Type of data set: physicochemical. The note with it: N = 3. The protocol: Helium pycnometry: True densities were measured using an MVP-D160-E multipycnometer (Quantrachrome Instruments; FL, USA) equipped with the micro cell and adapter. Measurements were conducted in triplicates. Before pressure measurements, the multipycnometer was purged with helium gas according to the manufacturer's recommendations.
True densities were measured using a MVP-D160-E multipycnometer (Quantrachrome Instruments; FL, USA). For density measurements, the micro cell and the micro cell adapter were used, and samples weighed at least 0.1 g for the jet-milled powders depending on availability and at least 0.6 g for the unprocessed powders.

Data set [4] concerns Burkholderia multivorans, BM. Nature of the data set: In vitro bacterial growth study (OD600). The note with it: 10 μg/mL or 1 μg/mL ibuprofen solution added 1:1 (v:v).
A short description of data set [5]: Solubilization in aqueous DMSO/phosphate buffer solution. The format is physicochemical. The note with it: aqueous solution of 1% v/v DMSO in phosphate buffer, DMSO (1% v/v) and phosphate (PO4) buffer, read-out: concentration solubilized.
The next data set has as its system PA HP3. Kind of data set: Endpoint time-kill synergy study. The note with it: ibuprofen with sub-MIC antimicrobial vs antimicrobial alone, 9 hours.
Data set [6] concerns Escherichia coli strain EC J53+pmg101. Kind of data set: In vitro bacterial growth study (OD600). Type of data set: cell-based. The conditions noted are these: 10 μg/mL or 1 μg/mL ibuprofen solution added 1:1 (v:v).
In data set [7] the test system is Staphylococcus aureus vancomycin-intermediate (VISA) strain (Mu50). Kind of data set: Endpoint CFU counting. The note with it: 6 hours in MH, free ibuprofen.
For data set [8], the system named is PA01. Nature of the data set: In vivo survival study after P. aeruginosa infection. The arrangement: species or system mice. The protocol:
[…]. […] […]. Also, the mice were weighed and assigned clinical scores, a semi-quantitative metric that rates their signs of infection from asymptomatic (0) to moribund (6), at the start of the study, at 12 hours, and at the termination of the study. […]. For this study, the mice were administered treatment on the same schedule and were observed continuously for their time of death over the course of 72 hours, by the end of which any surviving mice begin to recover. […].

For data set [9], the system named is PA01. Kind of data set: Endpoint CFU counting. The conditions noted are these: 6 hours in MH, free ibuprofen.
A short description of data set [10]: Bulk and tapped density, compressibility index and Hausner ratio. Type of data set: physicochemical. The protocol:
In this modified method, a 10 mL graduated cylinder fitted with a molded adapter substituted the 100 mL graduated cylinder in the tapped density tester. The compressibility index (CI) and Hausner ratio (HR) calculations were performed according to the following formulas: The tapped density (rT) calculations were performed using a tapped density tester (Agilent Technologies, Santa Clara, CA, USA) with a modified method from the USP for a small mass of powder. In this modified method, a 10 mL graduated cylinder fitted with a molded adapter substituted the 100 mL graduated cylinder for the calculations of the bulk density (rB) and the use in the tapped density tester. The compressibility index (CI) and the Hausner ratio (HR) calculations were performed according to the following formulas: […]

A short description of data set [11]: Brunauer-Emmett-Teller specific surface area. Type of data set: physicochemical. The protocol:
Brunauer-Emmett-Teller: Surface area (SA) was evaluated via a single-point BET method using a Monosorb® surface area analyzer (Quantrachrome Instruments; FL, USA) following 24 hour outgassing with helium at room temperature (RT) before each measurement in triplicate on a known powder mass (m). SSA was calculated using Equation 3: […]
Brunauer-Emmett-Teller (BET) specific surface area (SSA) measurements were taken. Surface area (SA) was evaluated via a single-point BET method using a Monosorb® surface area analyzer (Quantrachrome Instruments; FL, USA) following 24 hour outgassing with helium at room temperature before each measurement in triplicates. Samples masses (m) were at least 50 mg for the jet-milled powders depending on availability and 500 mg for the unprocessed samples. SSA was calculated according to the following formula: […]

Data set [12] relates to PA01. Kind of data set: Mouse model of acute P. aeruginosa pneumonia (bacterial burden, weight, clinical scores). The format is in vivo, mice.
The mark [13] stands for this setting: 0.75 mg in syrup by mouth every 8 hours, 36 hours post-infection, vs syrup only.

For the compound `CC(C)Cc1ccc(C(C)C(=O)O)cc1` (stereo not drawn) [ibuprofen, 2(4-isobutylphenyl)propanoic acid], in data set [1], the “bacterial growth (OD600)” value was “slowed and/or delayed the growth”. Besides, in [2], the “Angle of Repose” value is listed as 62.6 ± 2.9 º. Further, the “ρ (true density)” value in data set [3] turned out to be 1.14 ± 0.00 g/mL. The “bacterial growth (OD600)” value in data set [4] is listed as “slowed and/or delayed the growth”. Besides, in data set [5], the solubility was no more than 5000 µg/mL. Moreover, the “killing efficacy of ceftazidime and gentamicin (CFU/ml)” value with PA HP3 was “significantly increased the killing efficacy of both ceftazidime and gentamicin”. Moreover, the “bacterial growth (OD600)” value in data set [6] is reported as “slowed and/or delayed the growth”. Further, the CFU result in data set [7] was “Significant reduction in CFU”. The survival with PA01 [8] (72 hours, treated mice) was 92%. Moreover, the weight loss result in the data set on PA01 [8] (day 3) was “less weight loss”. The clinical scores result with PA01 [8] (days 2 and 3) is “significantly better clinical scores”. In addition, the CFU result in the data set with PA01 [9] is recorded as “Significant reduction in CFU”. Also, in data set [10], the bulk density worked out at 0.268 g/mL, the tap density was found to be 0.441 g/mL, the “ρB (bulk density)” value came out at 0.27 g/mL and the “ρT (tapped density)” value was determined as 0.44 g/mL. In data set [11], this compound registered a surface area of 0.357±0.005 m^2/g. In addition, the SSA in data set [11] (N = 3) is 0.36 ± 0.01 m^2/g. Further, in the data set on PA01 [12] (setting [13]), the “lung bacterial burden (CFU counts)” value is on record as “Significant reductions” and the “spleen bacterial burden (CFU counts)” value was “Significant reductions”. For the same compound, in the data set with PA01 [12] (36 hour study), the “weight loss after infection” value is reported as “no significant effect”.
